Test [1] concerns Coniochaeta. Briefly: Competitive inhibition of Coniochaeta sp. FPOX-C CFP-T7 mutant using Fru-ValHis as substrate at 5 to 25 uM by Lineweaver-Burk plot analysis.
Test [2] in a line: Inhibition of Coniochaeta sp. FPOX-C CFP-T7 mutant using Fru-ValHis as substrate by Dixon plot analysis.
Test [3] concerns Coniochaeta. Kind of test: Competitive inhibition of Coniochaeta sp. FPOX-C CFP-T7 mutant using Fru-ValHis as substrate at 250 to 1250 uM by Lineweaver-Burk plot analysis.
Test [4] has as its system Coniochaeta. Briefly: Competitive inhibition of Coniochaeta sp. FPOX-C CFP-T7 mutant using Fru-ValHis as substrate at 20 to 100 uM by Lineweaver-Burk plot analysis.

The source made the active and inactive calls. The calls are words filed in the database; no cut-off is given here.

One may read the Ki as a measure of affinity in units of concentration, obtained from inhibition or displacement. A higher Ki goes with a looser hold on the target.

For the compound `CC(C)[C@H](SC[C@@]1(O)OC[C@@H](O)[C@@H](O)[C@@H]1O)C(=O)O`, the inhibition result in the test with Coniochaeta [1] was “Active”. In test [2], this compound displayed a Ki of 11.1 µM.
In the case of `N[C@@H](CCCCSC[C@@]1(O)OC[C@@H](O)[C@@H](O)[C@@H]1O)C(=O)O`, the affinity in test [2] corresponds to a Ki of 782 µM. For the same compound, the inhibition result in the test with Coniochaeta [3] was “Active”.
Take `CC(C)[C@H](SC[C@@]1(O)OC[C@@H](O)[C@@H](O)[C@@H]1O)C(=O)N[C@@H](Cc1c[nH]cn1)C(=O)O`: in test [2], the Ki came to 66.8 µM. Moreover, the inhibition entry with Coniochaeta [4] is “Active”.

The values above are taken from ChEMBL document CHEMBL3608265, “Synthesis and inhibitory activity of substrate-analog fructosyl peptide oxidase inhibitors” (Bioorg Med Chem Lett, 2015).
